Values quoted from earlier work as cited in article PMC8448535 (Bioorganic & Medicinal Chemistry, 2021).
Counter-ions that a name gives are not always drawn.

Experiments:
[1] = tested on: recombinant-human ACE (rhACE); conditions: pIC50 of IC50 in mol/L
[2] = tested on: recombinant-human ACE2 (rhACE2); conditions: pIC50 of IC50 in mol/L
ACE2 = conditions: read-out: activity (inhibitory effect against ACE2)
furin = conditions: database screening of pre-existing drugs
cell viability = conditions: in words
influenza virus H3N2 = conditions: H3N2, 10 μM, at 24 h, compared to control

For `CC(C)C[C@@H](N[C@@H](Cc1cncn1Cc1cc(Cl)cc(Cl)c1)C(=O)O)C(=O)O` [MLN-4760-R], the pIC50 [1] is given as 4.4 ± 0.3 mol/L and the pIC50 [2] is given as 8.9 ± 0.1 mol/L.
For `CC(C)CC(N[C@@H](Cc1cncn1Cc1cc(Cl)cc(Cl)c1)C(=O)O)C(=O)O` (stereo partly drawn) [MLN-4760-S/R], the pIC50 [1] is listed as 4.4 ± 0.2 mol/L and the pIC50 [2] is listed as 8.5 ± 0.1 mol/L.
In the case of `NCCNCCN1CC1` [N-(2-aminoethyl)-1-aziridineethanamine], the IC50 (ACE2) is listed as 57 ± 7 µM.
For `Nc1nc(N)c2nc(CNc3ccc(C(=O)N[C@@H](CCC(=O)O)C(=O)O)cc3)cnc2n1` [aminopterin], the affinity for furin (furin) is given as “good affinity”.
For `CN(Cc1cc(Br)cc(Br)c1N)C1CCCCC1` [bromhexine], the “activity towards TMPRSS2” value (TMPRSS2) is given as “good activity”.
For `CN(C)C(=O)COC(=O)Cc1ccc(OC(=O)c2ccc(NC(=N)N)cc2)cc1` [camostat mesylate], the “block of SARS-CoV from entering cells” value (SARS-CoV) is listed as 65%.
For `N=C(N)c1cccc(C[C@H](NS(=O)(=O)c2cccc(-c3ccc(Cl)cc3Cl)c2)C(=O)N2CCC(CCN)CC2)c1` [compound 92], the “effect on cell viability” value (cell viability) is listed as “little to no effect” and the “decrease in virus titres” value (influenza virus H3N2) is listed as 100 fold.
In the case of `N=C(N)c1cccc(C[C@H](NS(=O)(=O)c2cccc(-c3ccc(Cl)cc3Cl)c2)C(=O)N2CCC(NC(=O)NC3CCCCC3)CC2)c1` [compound 114], the “effect on cell viability” value (cell viability) is listed as “little to no effect”.
For `N=C(N)c1ccc(/N=N/Nc2ccc(C(=N)N)cc2)cc1` [diminazene], the affinity for furin (furin) is given as “good affinity”.
For `CN(Cc1cnc2nc(N)nc(N)c2n1)c1ccc(C(=O)N[C@@H](CCC(=O)O)C(=O)O)cc1` [methotrexate], the affinity for furin (furin) is listed as “good affinity”.
For `COc1cc(C2Oc3cc([C@H]4Oc5cc(O)cc(O)c5C(=O)[C@@H]4O)ccc3OC2CO)ccc1O` (stereo partly drawn) [silybin], the affinity for furin (furin) is given as “good affinity”.
For “angiotensin-III (RVYIHPF; Angiotensin 3; UniProt P01019 26-32, looked up) [Ang-III]”, the “vasopressor efficacy relative to Ang-II” value is listed as 40%.
